Reference: patent US20240262804A1, “NITROGEN-CONTAINING HETEROCYCLIC KETONES, PREPARATION METHODS AND MEDICINAL USES THEREOF” (Hansoh Bio LLC, priority 2021, published 2024)
pIC50: −log10 of the molar value.

Molecular target: bovine cardiac myosin (Bos taurus (Bovine), UniProt Q9BE39)
Assay: Myosin inhibitory potency: PK/LDH-coupled ATPase assay on bovine skinned cardiac myofibrils
Assay type: biochemical
Conditions: pCa=6.25, 50 μM ATP, 25° C., read-out: myosin inhibition activity IC50
Procedure: The average rates of ATPase inhibition, and the IC50 values are determined by Victor Nivo multimode plate reader (PerkinElmer, USA).
As to the assays background, a biochemical assay couples the ATPase activity of bovine cardiac myosin to an enzymatic coupling system consisting of pyruvate kinase and lactate dehydrogenase (PK/LDH) and monitoring the absorbance decrease of NADH (at 340 nm) as a function of time to measure the inhibitory ability of small molecule agents. In the assay, PK converts ADP (Adenosine diphosphate) to ATP (adenosine triphosphate) by converting PEP (phosphoenolpyruvate) to pyruvate. Pyruvate is then converted to lactate by LDH by converting NADH (nicotinamide adenine dinucleotide) to NAD (oxidized nicotinamide adenine dinucleotide).
In our experiments, bovine skinned cardiac myofibrils were isolated from the frozen bovine left ventricle as myosin's source in the ATPase assay. The calcium concentration that achieves a 50% (pCa50 or pCa=6.25) activation of the myofibril system was chosen as the final condition for assessing the activation activity according to the literature (DOI: 10.1074/jbc.M117.776815). Myofibrils ATPase activity was measured in a buffered solution containing 12 mM PIPES (piperazine-N, N′-bis(2-ethane sulfonic acid) and 2 mM magnesium chloride at pH 6.8 (PM12 buffer). Final assay conditions were 1 mg/mL of bovine cardiac myofibrils, 1:20 of stock PK/LDH (Sigma-Aldrich, Cat No. P0294-5X5ML), 50 μM ATP, 1 mM DTT (dithiothreitol), 0.75 mM NADH, 1.5 mM PEP at pCa50 (pCa=6.25). Compounds were dissolved in DMSO (dimethyl sulfoxide). Serial dilution of compounds was created such that the final desired concentration of compound would be achieved in a volume of 150 μL with a fixed DMSO concentration of 2% (v/v). 75 μL of a solution containing bovine cardiac myofibrils, PK/LDH, and calcium were added to a 96 well plate for a 7 point dose-response. In some circumstances, 10 point-response was used to repeat the ATPase assays on compounds of interest. Compounds were added to the myofibrils solution and incubated for 5 minutes. The enzymatic reaction was started with the addition of 75 μL of a solution containing ATP, PEP, NADH, compounds, and calcium. The ATPase activity was measured by reading absorbance at 340 nm in a PerkinElmer Victor Nivo plate reader at 25° C. in kinetic mode for 15 minutes using clear bottom plates. The slopes of the absorbance changes as a function of time for the first 10 minutes were normalized to slopes on the control wells containing all reagents, including DMSO, but without compounds. This normalized rate was then plotted as a function of small molecule concentration in GraphPad prism 9. The data were fitted to a four-parameter fit, and IC50 was calculated using Graphpad Prism 9.

bovine cardiac myosin, sequence (Q9BE39 whole entry): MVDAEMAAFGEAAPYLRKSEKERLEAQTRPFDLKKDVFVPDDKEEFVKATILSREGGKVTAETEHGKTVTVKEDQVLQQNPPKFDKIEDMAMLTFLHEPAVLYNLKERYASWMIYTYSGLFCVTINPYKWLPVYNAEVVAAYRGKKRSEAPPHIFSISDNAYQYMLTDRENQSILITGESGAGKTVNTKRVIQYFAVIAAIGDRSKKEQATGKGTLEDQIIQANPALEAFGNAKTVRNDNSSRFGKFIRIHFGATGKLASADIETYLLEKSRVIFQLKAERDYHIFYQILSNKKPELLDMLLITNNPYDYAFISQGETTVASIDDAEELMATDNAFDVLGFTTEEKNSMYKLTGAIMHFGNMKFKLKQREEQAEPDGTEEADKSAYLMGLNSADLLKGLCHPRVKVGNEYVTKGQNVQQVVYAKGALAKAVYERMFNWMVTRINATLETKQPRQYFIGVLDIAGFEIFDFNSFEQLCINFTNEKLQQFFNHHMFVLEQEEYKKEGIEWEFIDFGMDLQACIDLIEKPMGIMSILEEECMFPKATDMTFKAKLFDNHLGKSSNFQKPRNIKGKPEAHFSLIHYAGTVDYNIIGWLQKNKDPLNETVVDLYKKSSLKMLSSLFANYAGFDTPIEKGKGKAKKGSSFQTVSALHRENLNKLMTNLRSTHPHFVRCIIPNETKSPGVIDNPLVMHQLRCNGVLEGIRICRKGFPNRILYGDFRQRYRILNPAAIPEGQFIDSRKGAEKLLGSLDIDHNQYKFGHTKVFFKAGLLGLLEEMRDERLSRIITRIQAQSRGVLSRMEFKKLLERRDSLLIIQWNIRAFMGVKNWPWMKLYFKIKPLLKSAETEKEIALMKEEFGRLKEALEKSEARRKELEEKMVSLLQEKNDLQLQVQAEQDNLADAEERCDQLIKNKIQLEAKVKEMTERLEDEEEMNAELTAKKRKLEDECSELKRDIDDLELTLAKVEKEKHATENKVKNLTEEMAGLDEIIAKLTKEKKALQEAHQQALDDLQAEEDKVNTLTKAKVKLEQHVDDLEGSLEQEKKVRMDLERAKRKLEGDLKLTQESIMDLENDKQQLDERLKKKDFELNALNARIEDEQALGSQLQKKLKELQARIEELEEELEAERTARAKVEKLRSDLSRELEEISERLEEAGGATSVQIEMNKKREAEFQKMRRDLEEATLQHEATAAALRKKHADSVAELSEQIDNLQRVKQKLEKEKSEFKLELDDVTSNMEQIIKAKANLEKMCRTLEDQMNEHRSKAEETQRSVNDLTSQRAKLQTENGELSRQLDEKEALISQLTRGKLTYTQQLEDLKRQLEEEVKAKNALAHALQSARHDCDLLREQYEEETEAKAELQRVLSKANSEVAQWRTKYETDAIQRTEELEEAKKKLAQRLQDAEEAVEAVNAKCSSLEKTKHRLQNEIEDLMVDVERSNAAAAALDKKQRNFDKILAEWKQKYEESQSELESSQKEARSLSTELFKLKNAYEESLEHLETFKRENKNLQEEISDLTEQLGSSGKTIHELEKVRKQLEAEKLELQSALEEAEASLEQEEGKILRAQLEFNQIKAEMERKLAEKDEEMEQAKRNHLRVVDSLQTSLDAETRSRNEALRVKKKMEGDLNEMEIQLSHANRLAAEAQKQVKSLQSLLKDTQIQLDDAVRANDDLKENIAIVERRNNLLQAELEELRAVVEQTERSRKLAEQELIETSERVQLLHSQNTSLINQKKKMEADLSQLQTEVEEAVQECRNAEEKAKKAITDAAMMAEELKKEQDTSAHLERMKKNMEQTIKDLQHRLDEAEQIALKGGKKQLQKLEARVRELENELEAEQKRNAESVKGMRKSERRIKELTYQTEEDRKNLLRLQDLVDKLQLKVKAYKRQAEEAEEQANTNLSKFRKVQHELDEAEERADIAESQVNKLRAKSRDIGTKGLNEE
bovine cardiac myosin, sequence (P85100 whole entry partner): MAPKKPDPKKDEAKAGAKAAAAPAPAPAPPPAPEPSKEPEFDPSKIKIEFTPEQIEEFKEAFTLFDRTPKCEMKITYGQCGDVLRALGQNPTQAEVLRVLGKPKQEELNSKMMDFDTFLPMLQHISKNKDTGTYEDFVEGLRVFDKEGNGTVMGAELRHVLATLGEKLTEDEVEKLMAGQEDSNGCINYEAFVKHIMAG
bovine cardiac myosin, sequence (Q3SZE5 whole entry partner): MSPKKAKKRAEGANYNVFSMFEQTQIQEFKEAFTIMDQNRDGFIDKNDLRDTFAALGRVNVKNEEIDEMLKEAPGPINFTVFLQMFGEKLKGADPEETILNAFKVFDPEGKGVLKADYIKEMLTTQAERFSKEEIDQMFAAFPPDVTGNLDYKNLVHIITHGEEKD

pIC50	Structure (SMILES)
5.18	COc1ccccc1[C@H](C)Nc1nc(=O)n(C2CCOCC2)c(=O)[nH]1 [Example 150]
6.13	CCc1ccc([C@H](C)Nc2nc(=O)n(C3CCOCC3)c(=O)[nH]2)cc1 [Example 186]
5.39	C[C@H](Nc1nc(=O)n(C2CCOCC2)c(=O)[nH]1)c1cccc(C(O)C2CC2)c1 (some centres unmarked) [Example 250]
5.76	C[C@H](Nc1nc(=O)n(C2CCOCC2)c(=O)[nH]1)c1cccc(-c2ccc(F)cc2)c1 [Example 226]
5.46	CC(Nc1nc(=O)n(C2CCOCC2)c(=O)[nH]1)c1cccc(F)c1 (centres unmarked) [Example 122]
5.66	Cc1cccc([C@H](C)Nc2nc(=O)n([C@@H](C)C(F)(F)F)c(=O)[nH]2)c1 [Example 40]
5.89	C[C@H](Nc1nc(=O)n(C2CCOCC2)c(=O)[nH]1)c1cccc(N2CCCCC2)c1 [Example 216]
5.91	COC(=O)N1CCC(n2c(=O)nc(N[C@@H](C)c3cccc(C)c3)[nH]c2=O)CC1 [Example 242]
5.91	CC(=O)N1CCC(c2cccc([C@H](C)Nc3nc(=O)n(C4CCOCC4)c(=O)[nH]3)c2)CC1 [Example 329]
5.42	CC(Nc1nc(=O)n(C2CCN(C(=O)OC(C)(C)C)CC2)c(=O)[nH]1)c1ccc(C(F)(F)F)cc1 (centres unmarked) [Example 145]
6.05	C[C@H](Nc1nc(=O)n(C2CCOCC2)c(=O)[nH]1)c1cccc(-c2cncnc2)c1 [Example 223]
5.66	Cc1cccc([C@H](C)Nc2nc(=O)n([C@H](C)C(F)(F)F)c(=O)[nH]2)c1 [Example 41]
5.17	Cc1cccc([C@H](C)Nc2nc(=O)n(C3CCN(CC(F)(F)F)CC3)c(=O)[nH]2)c1 [Example 39]
5.36	CC(Nc1nc(=O)n(C2CCNCC2)c(=O)[nH]1)c1ccc(F)cc1 (centres unmarked) [Example 188]
5.80	CC(Nc1nc(=O)n(C2CCOCC2)c(=O)[nH]1)c1cccc(Br)c1 (centres unmarked) [Example 120]
6.00	CC(C)c1cccc([C@H](C)Nc2nc(=O)n(C3CCOCC3)c(=O)[nH]2)c1 [Example 308]
5.60	C[C@H](Nc1nc(=O)n(C2CCOCC2)c(=O)[nH]1)c1cccc(-c2ccncc2)c1 [Example 221]

pIC50	Structure (SMILES)
5.70	CC(O)c1cccc([C@@H](Nc2nc(=O)n(C3CCOCC3)c(=O)[nH]2)C(F)F)c1 (some centres unmarked) [Example 266]
5.55	Cc1cccc([C@H](CO)Nc2nc(=O)n(C3CCOCC3)c(=O)[nH]2)c1 [Example 317]
5.33	CC(Nc1nc(=O)n(C2CCOCC2)c(=O)[nH]1)c1cccc(C(F)(F)F)c1 (centres unmarked) [Example 130]
5.38	C[C@H](Nc1nc(=O)n(C2CCOCC2)c(=O)[nH]1)c1cccc(-c2cn[nH]c2)c1 [Example 228]
6.06	COC[C@H](Nc1nc(=O)n(C2CCOCC2)c(=O)[nH]1)c1cccc(C)c1 [Example 294]
6.07	C[C@H](Nc1nc(=O)n(C2CCOCC2)c(=O)[nH]1)c1cccc([C@H](O)C(F)(F)F)c1 [Example 291]
5.13	Cc1cccc([C@H](C)Nc2nc(=O)n(C3CCn4nccc4C3)c(=O)[nH]2)c1 (some centres unmarked) [Example 92]
4.91	CC(Nc1nc(=O)n(C2CCOCC2)c(=O)[nH]1)c1ccc(CO)cc1 (centres unmarked) [Example 140]
5.14	Cc1cccc([C@H](C)Nc2nc(=O)n(C3CCOC3)c(=O)[nH]2)c1 (some centres unmarked) [Example 95]
5.94	C[C@H](Nc1nc(=O)n(C2CCOCC2)c(=O)[nH]1)c1cccc(C2CN(C(=O)OC(C)(C)C)C2)c1 [Example 336]
5.63	CO[C@H]1COCC[C@@H]1n1c(=O)nc(N[C@@H](C)c2cccc(C)c2)[nH]c1=O [Example 347]
5.66	C[C@H](Nc1nc(=O)n(C2CCOCC2)c(=O)[nH]1)c1cccc(C2CCN(CC(F)(F)F)CC2)c1 [Example 290]
5.97	CC(C)Oc1ccc([C@H](C)Nc2nc(=O)n(C3CCOCC3)c(=O)[nH]2)cc1 [Example 43]
5.41	C[C@H](Nc1nc(=O)n(C2CCOCC2)c(=O)[nH]1)c1ccccc1 [Example 46]
5.73	CC(Nc1nc(=O)n(C2CCOCC2)c(=O)[nH]1)c1ccc2c(c1)OCO2 (centres unmarked) [Example 128]
5.68	Cc1nccn1-c1cccc([C@H](C)Nc2nc(=O)n(C3CCOCC3)c(=O)[nH]2)c1 [Example 203]

Further lines, the compound ahead of its results:

Structure (SMILES)	pIC50
COC[C@H](Nc1nc(=O)n(C2CCOCC2)c(=O)[nH]1)c1ccccc1 [Example 304]	5.75
Cc1ccc(F)c([C@H](C)Nc2nc(=O)n([C@H]3CCOC[C@H]3F)c(=O)[nH]2)c1 [Example 314]	6.11
Cc1cccc([C@H](C)Nc2nc(=O)n(C3CCN(CCF)CC3)c(=O)[nH]2)c1 [Example 301]	6.10
CC(C)n1c(=O)nc(N[C@@H](C)c2cccc([C@H](C)O)c2)[nH]c1=O [Example 343]	5.82
CC(O)c1cccc([C@@H](Nc2nc(=O)n(C(C)C)c(=O)[nH]2)C(F)F)c1 (some centres unmarked) [Example 267]	6.39
C[C@H](Nc1nc(=O)n([C@@H](C)C(F)(F)F)c(=O)[nH]1)C1CCCCC1 [Example 14]	5.93
CC(Nc1nc(=O)n(C2CCOCC2)c(=O)[nH]1)c1ccc(C2CC2)cc1 (centres unmarked) [Example 137]	5.31
C[C@H](Nc1nc(=O)n([C@H](C)C(F)(F)F)c(=O)[nH]1)C1CCCCC1 [Example 15]	5.67
C[C@H](Nc1nc(=O)n(C2CCC(O)C2)c(=O)[nH]1)C1CCCCC1 (some centres unmarked) [Example 232]	5.08
C[C@H](Nc1nc(=O)n([C@@H](C)C(F)(F)F)c(=O)[nH]1)c1cccc(C(F)(F)F)c1 [Example 332]	5.86
C[C@H](Nc1nc(=O)n(-c2cccnc2)c(=O)[nH]1)C1CCCCC1 [Example 24]	5.04
CC(C)n1c(=O)nc(N[C@@H](C)c2ccccc2)[nH]c1=O [Example 3]	5.15
Cc1ccc(F)c([C@H](C)Nc2nc(=O)n([C@@H]3CCOC[C@@H]3F)c(=O)[nH]2)c1 [Example 313]	5.86
C[C@H](Nc1nc(=O)n([C@H]2CCOC[C@H]2F)c(=O)[nH]1)c1ccc(Cl)c(Cl)c1 [Example 321]	5.97
COCCN1CCC(n2c(=O)nc(N[C@@H](C)C3CCCCC3)[nH]c2=O)CC1 [Example 33]	5.41
O=c1nc(NC(C2CCCCC2)C(F)(F)F)[nH]c(=O)n1C1CCOCC1 (centres unmarked) [Example 75]	5.21

Structure (SMILES)	pIC50
C[C@H](Nc1nc(=O)n([C@H](C)C(F)(F)F)c(=O)[nH]1)c1ccc(Cl)c(Cl)c1 [Example 323]	6.15
CC(C)[C@@H](O)c1cccc([C@H](C)Nc2nc(=O)n(C3CCOCC3)c(=O)[nH]2)c1 [Example 287]	6.27
CC(Nc1nc(=O)n(C2CCOCC2)c(=O)[nH]1)c1cc(F)ccc1F (centres unmarked) [Example 319]	5.89
C[C@H](Nc1nc(=O)n([C@@H]2CCOC[C@@H]2F)c(=O)[nH]1)c1cccc(C(F)(F)F)c1 [Example 309]	5.79
C[C@H](Nc1nc(=O)n(C2CCOCC2)c(=O)[nH]1)c1cc(Cl)cc(Cl)c1 [Example 151]	5.75
C[C@H](Nc1nc(=O)n(C2CCC(F)(F)CC2)c(=O)[nH]1)C1CCCCC1 [Example 55]	5.33
CC(Nc1nc(=O)n(C2CCOCC2)c(=O)[nH]1)C1CC2(CCC2)C1 (centres unmarked) [Example 110]	5.05
C[C@H](Nc1nc(=O)n([C@@H]2CCOC[C@@H]2F)c(=O)[nH]1)c1ccc(Cl)c(Cl)c1 [Example 320]	5.99
C[C@H](Nc1nc(=O)n(C2(C(F)(F)F)CC2)c(=O)[nH]1)C1CCCCC1 [Example 54]	5.34
C[C@H](Nc1nc(=O)n([C@@H](C)C(F)(F)F)c(=O)[nH]1)c1cccc(F)c1 [Example 179]	5.44
O=c1nc(N[C@H](c2cccc(C3CN(CC(F)(F)F)C3)c2)C(F)F)[nH]c(=O)n1C1CCOCC1 [Example 259]	6.35
CC(C)n1c(=O)nc(N[C@@H](C)c2cccc([C@H](C)O)c2)[nH]c1=O [Example 342]	5.68
C[C@H](Nc1nc(=O)n(CC(F)(F)F)c(=O)[nH]1)C1CCCCC1 [Example 16]	6.16
CC(C)n1c(=O)nc(N[C@H](c2cccc(C(O)C3CC3)c2)C(F)F)[nH]c1=O (some centres unmarked) [Example 265]	5.96
O=c1nc(N[C@H](c2cccc(Br)c2)C(F)F)[nH]c(=O)n1C1CCOCC1 [Example 270]	6.26
C[C@H](Nc1nc(=O)n([C@H](C)C(F)(F)F)c(=O)[nH]1)c1ccc(OC(F)(F)F)cc1 [Example 174]	5.55
